Type in all cases: functional
The test system of one experiment is NCI-H522. The experiment can be described thus: Cytotoxicity against Homo sapiens (human) NCI-H522 cells assessed as growth inhibition at 10 uM after 48 hr by SRB assay. As to conditions: NCI-H522, 48 h, read-out: GI. In general terms: Sulforhodamine B stains cellular protein and so reports cell mass.
The next experiment concerns T47D. The experiment can be described thus: Cytotoxicity against Homo sapiens (human) T47D cells assessed as growth inhibition at 10 uM after 48 hr by SRB assay. The note with it: read-out: GI.
The subject of the next experiment is HCT-15. Briefly: Cytotoxicity against Homo sapiens (human) HCT15 cells assessed as growth inhibition at 10 uM after 48 hr by SRB assay. As to conditions: HCT-15, 48 h, read-out: GI.
A further experiment deals with PA-1. Briefly: Cytotoxicity against Homo sapiens (human) PA1 cells assessed as growth inhibition at 10 uM after 48 hr by SRB assay. As to conditions: PA-1, 48 h, read-out: GI.
Another experiment deals with Rattus norvegicus. Briefly: Anti-inflammatory activity against albino Charles Foster Rattus norvegicus (rat) assessed as inhibition of carrageenan-induced paw edema at 50 mg/kg, po administered 30 min prior to carrageenan injection measured after 1-3 hr by plethysmometer. Further details: scale not given: the % may be the effect or the level left. For orientation: Carrageenan injected into the paw causes an acute inflammation.

For a further experiment, the system named is HepG2. Briefly: Cytotoxicity against Homo sapiens (human) HepG2 cells assessed as growth inhibition at 10 uM after 48 hr by SRB assay. The note with it: HepG2, 48 h, read-out: GI.

As to `O=C1C2C3c4ccccc4C(c4ccccc43)C2C(=O)N1CN1CCOCC1` (configuration not stated), the inhibition of growth at 10 µM turned out to be 24% with NCI-H522; 20% with T47D; 22% with HCT-15; 24% in the experiment on PA-1; 34% in the experiment with HepG2. Further, the Activity in the experiment on Rattus norvegicus turned out to be 39%.
Take `O=C1C2C3c4ccccc4C(c4ccccc43)C2C(=O)N1Cc1ccco1` (configuration not stated): the inhibition of growth at 10 µM with NCI-H522 is 25%; in the experiment with T47D, 40%; in the experiment on HCT-15, 15%; with PA-1, 27%; with HepG2 it was 38%. Besides, the Activity in the experiment with Rattus norvegicus worked out at 15%.
Regarding `O=C1C2C3c4ccccc4C(c4ccccc43)C2C(=O)N1Cc1ccccn1` (configuration not stated), the inhibition of growth at 10 µM turned out to be 20% in the experiment on NCI-H522; 26% with T47D; 7% with HCT-15; 47% with PA-1; 35% in the experiment on HepG2. In the experiment with Rattus norvegicus, the Activity came to 14%.
In the case of `O=C1C2C3c4ccccc4C(c4ccccc43)C2C(=O)N1CC1CCCO1` (configuration not stated), the inhibition of growth at 10 µM in the experiment with NCI-H522 was found to be 30%; with T47D it was 23%; in the experiment on HCT-15, 22%; in the experiment with PA-1, 31%; with HepG2, 55%. Also, in the experiment on Rattus norvegicus, the Activity stood at 34%.
Regarding `O=C1C2C3c4ccccc4C(c4ccccc43)C2C(=O)N1CCN1CCNCC1` (configuration not stated), in the experiment on Rattus norvegicus, the Activity turned out to be 31%.
With `O=C1C2C3c4ccccc4C(c4ccccc43)C2C(=O)N1CC1CCNCC1` (configuration not stated), the inhibition of growth at 10 µM with NCI-H522 was 25%; in the experiment on T47D, 17%; in the experiment on HCT-15, 11%; with PA-1, 26%; in the experiment with HepG2, 32%. The Activity in the experiment with Rattus norvegicus worked out at 35%.
Take `O=C1C2C3c4ccccc4C(c4ccccc43)C2C(=O)N1Cc1ccccc1` (configuration not stated): the inhibition of growth at 10 µM in the experiment on NCI-H522 was 62%; in the experiment on T47D, 22%; with HCT-15, 12%; with PA-1, 43%; in the experiment with HepG2 it was 52%. The Activity in the experiment on Rattus norvegicus is recorded as 37%.
For `O=C1C2C3c4ccccc4C(c4ccccc43)C2C(=O)N1C1CC1` (configuration not stated), the inhibition of growth at 10 µM in the experiment on NCI-H522 stood at 24%; in the experiment on T47D, 21%; in the experiment on HCT-15 it was 19%; in the experiment with PA-1, 37%; in the experiment on HepG2, 53%. For the same compound, in the experiment on Rattus norvegicus, the Activity is listed as 23%.
With `CC1(C)CC(N2C(=O)C3C4c5ccccc5C(c5ccccc54)C3C2=O)CC(C)(C)N1` (configuration not stated), the inhibition of growth at 10 µM in the experiment on NCI-H522 came to 15%; in the experiment on T47D, 10%; with HCT-15 it was 20%; with PA-1 it was 31%; in the experiment on HepG2, 40%. Also, the Activity in the experiment with Rattus norvegicus is listed as 32%.
Consider `O=C1C2C3c4ccccc4C(c4ccccc43)C2C(=O)N1Cc1ccncc1` (configuration not stated), for which the inhibition of growth at 10 µM amounted to 27% in the experiment on NCI-H522; 24% in the experiment on T47D; 12% in the experiment on HCT-15; 21% in the experiment with PA-1; 61% in the experiment on HepG2. For the same compound, the Activity in the experiment on Rattus norvegicus was found to be 37%.
Consider `O=C1C2C3c4ccccc4C(c4ccccc43)C2C(=O)N1CCN1CCCC1` (configuration not stated), for which the inhibition of growth at 10 µM turned out to be 13% in the experiment on NCI-H522; 7% with T47D; 14% in the experiment with HCT-15; 36% with PA-1; 47% in the experiment on HepG2. Further, the Activity in the experiment on Rattus norvegicus is 28%.
Regarding `O=C1C2C3c4ccccc4C(c4ccccc43)C2C(=O)N1CCN1CCCCC1` (configuration not stated), the inhibition of growth at 10 µM came out at 23% in the experiment on NCI-H522; 20% in the experiment on T47D; 6% in the experiment with HCT-15; 25% with PA-1; 38% in the experiment with HepG2. In addition, the Activity in the experiment with Rattus norvegicus was 27%.
Take `O=C1CCCN1CCN1C(=O)C2C3c4ccccc4C(c4ccccc43)C2C1=O` (configuration not stated): the inhibition of growth at 10 µM came to 15% with NCI-H522; 26% with T47D; 16% with HCT-15; 33% with PA-1; 41% in the experiment on HepG2. For the same compound, the Activity in the experiment on Rattus norvegicus is 17%.
Take `O=C1C2C3c4ccccc4C(c4ccccc43)C2C(=O)N1CCCn1ccnc1` (configuration not stated): the inhibition of growth at 10 µM with NCI-H522 is 32%; in the experiment with T47D, 28%; with HCT-15 it was 30%; in the experiment with PA-1 it was 40%; in the experiment with HepG2, 48%. Further, in the experiment on Rattus norvegicus, the Activity is reported as 27%.
On to `O=C1C2C3c4ccccc4C(c4ccccc43)C2C(=O)N1Nc1ccccc1` (configuration not stated), for which the inhibition of growth at 10 µM in the experiment with NCI-H522 came to 52%; in the experiment on T47D, 13%; with HCT-15, 11%; with PA-1, 46%; in the experiment with HepG2, 52%. For the same compound, in the experiment with Rattus norvegicus, the Activity is given as 11%.
Consider `O=C1C2C3c4ccccc4C(c4ccccc43)C2C(=O)N1Nc1ccccn1` (configuration not stated), for which the inhibition of growth at 10 µM in the experiment on NCI-H522 was 27%; in the experiment with T47D it was 1%; in the experiment with HCT-15 it was 4%; in the experiment on PA-1, 13%; in the experiment with HepG2, 37%. Moreover, the Activity with Rattus norvegicus amounted to 38%.
On to `O=C1C2C3c4ccccc4C(c4ccccc43)C2C(=O)N1CCN1C(=O)C2C3c4ccccc4C(c4ccccc43)C2C1=O` (configuration not stated), for which the inhibition of growth at 10 µM in the experiment with NCI-H522 was 11%; in the experiment with T47D, 5%; in the experiment on HCT-15, 10%; in the experiment on PA-1, 9%; in the experiment on HepG2, 29%. The Activity in the experiment with Rattus norvegicus stood at 20%.
On to `O=C1C2C3c4ccccc4C(c4ccccc43)C2C(=O)N1CCCN1C(=O)C2C3c4ccccc4C(c4ccccc43)C2C1=O` (configuration not stated), for which the inhibition of growth at 10 µM turned out to be 17% in the experiment with NCI-H522; 24% in the experiment on T47D; 27% in the experiment on HCT-15; 6% in the experiment with PA-1; 45% in the experiment on HepG2. Further, the Activity in the experiment on Rattus norvegicus was 33%.
With `O=C1C2C3c4ccccc4C(c4ccccc43)C2C(=O)N1CCCCN1C(=O)C2C3c4ccccc4C(c4ccccc43)C2C1=O` (configuration not stated), the inhibition of growth at 10 µM in the experiment with NCI-H522 was 23%; in the experiment with T47D, 19%; in the experiment with HCT-15, 26%; in the experiment with PA-1, 37%; in the experiment on HepG2, 25%. In addition, the Activity in the experiment with Rattus norvegicus is 25%.
For the compound `CC(CN1C(=O)C2C3c4ccccc4C(c4ccccc43)C2C1=O)N1C(=O)C2C3c4ccccc4C(c4ccccc43)C2C1=O` (configuration not stated), the inhibition of growth at 10 µM turned out to be 20% with NCI-H522; 2% in the experiment on T47D; 9% with HCT-15; 14% in the experiment on PA-1; 41% with HepG2. Further, in the experiment with Rattus norvegicus, the Activity is listed as 22%.
With `O=C1C2C3c4ccccc4C(c4ccccc43)C2C(=O)N1CCCN1CCN(CCCN2C(=O)C3C4c5ccccc5C(c5ccccc54)C3C2=O)CC1` (configuration not stated), the inhibition of growth at 10 µM in the experiment on NCI-H522 is 17%; in the experiment with T47D, 33%; in the experiment with HCT-15, 10%; in the experiment with PA-1 it was 16%; with HepG2, 33%. For the same compound, in the experiment with Rattus norvegicus, the Activity is listed as 15%.
On to `C[C@@H]1C[C@@H]([C@H](O)CC2CC(=O)NC(=O)C2)C(=O)[C@@H](C)C1` [CYCLOHEXIMIDE], for which the inhibition of growth at 10 µM was found to be 13% with NCI-H522; 9% with T47D; 12% with HCT-15; 32% with PA-1; 15% with HepG2.
The like results for `O=P1(N(CCCl)CCCl)NCCCO1` (configuration not stated) [CYCLOPHOSPHAMIDE ANHYDROUS] were, in that order, 9%, 12%, 5%, 15% and 14%.
The like results for `O=c1[nH]cc(F)c(=O)[nH]1` [FLUOROURACIL] were, in that order, 18%, 10%, 15%, 18% and 28%.
As to `CC(C)Cc1ccc(C(C)C(=O)O)cc1` (configuration not stated) [IBUPROFEN], the Activity in the experiment with Rattus norvegicus is given as 39%.

These data come from ChEMBL document CHEMBL3044972, “Synthesis, anti-inflammatory, and cytotoxicity evaluation of 9,10-dihydroanthracene-9,10-,-succinimide and bis-succinimide derivatives” (2013).
